system: IL-1β production in PMA-differentiated THP-1 cells; assay: IL-1β production in PMA-differentiated THP-1 cells stimulated with gramicidin (hTHP-1 assay, 2% fetal bovine serum; Procedures 1-3); assay type: cell-based, human; settings: hTHP-1 assay containing 2% fetal bovine serum; class symbols; read-out: hTHP-1 IC50 (Average IC50 of compounds in hTHP-1 assay)
In short: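 PMA-differentiated (20 ng/ml, 16-18 h) THP-1 cells in RPMI with 2% FBS, 50,000 cells/well, preincubated 1 h with compound (final 100–0.0017 μM, 0.37% DMSO), then stimulated with 5 μM gramicidin for 2 h. Supernatant IL-1β measured by HTRF.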

IC50 [nM] | Structure (SMILES)
1000 to 5000 | CC(C)(O)c1cc(S(N)(=O)=NC(=O)Nc2c3c(cc4c2CCC4)CCC3)nn1-c1ccccc1 (single isomer, unassigned) [Example 308, (S) or (R)-N′-((1,2,3,5,6,7-hexahydro-s-indacen-4-yl)carbamoyl)-5-(2-hydroxypropan-2-yl)-1-phenyl-1H-pyrazole-3-sulfonimidamide]
40 to 200 | CC(C)(O)c1cc(S(N)(=O)=NC(=O)Nc2c3c(cc4c2CCC4)CCC3)nn1-c1ccccc1 (single isomer, unassigned) [Example 309, (R) or (S)-N′-((1,2,3,5,6,7-hexahydro-s-indacen-4-yl)carbamoyl)-5-(2-hydroxypropan-2-yl)-1-phenyl-1H-pyrazole-3-sulfonimidamide]
8 to 40 | CC(C)(O)c1csc(S(N)(=O)=NC(=O)Nc2c3c(c(F)c4c2CCC4)CCC3)n1 (single isomer, unassigned) [Example 310, (R) or (S)-N′-((8-fluoro-1,2,3,5,6,7-hexahydro-s-indacen-4-yl)carbamoyl)-4-(2-hydroxypropan-2-yl)thiazole-2-sulfonimidamide]
200 to 1000 | CC(C)(O)c1csc(S(N)(=O)=NC(=O)Nc2c3c(c(F)c4c2CCC4)CCC3)n1 (single isomer, unassigned) [Example 311, (S) or (R)-N′-((8-fluoro-1,2,3,5,6,7-hexahydro-s-indacen-4-yl)carbamoyl)-4-(2-hydroxypropan-2-yl)thiazole-2-sulfonimidamide]
200 to 1000 | CNCc1ccc(S(N)(=O)=NC(=O)Nc2c3c(cc4c2CCC4)CCC3)cc1 (single isomer, unassigned) [Example 314, (S) or (R)-N′-((1,2,3,5,6,7-hexahydro-s-indacen-4-yl)carbamoyl)-4-((methylamino)methyl)benzenesulfonimidamide]
5000 to 30000 | CNCc1ccc(S(N)(=O)=NC(=O)Nc2c3c(cc4c2CCC4)CCC3)cc1 (single isomer, unassigned) [Example 315, (R) or (S)-N′-((1,2,3,5,6,7-hexahydro-s-indacen-4-yl)carbamoyl)-4-((methylamino)methyl)benzenesulfonimidamide]
200 to 1000 | CC(C)c1cc(C#N)c(F)c(C(C)C)c1NC(=O)N=S(N)(=O)c1cnc(C(C)(O)CO)s1 (single isomer, unassigned) [Example 316, Two isomers of (R,R) or (R,S) or (S,S) or (S,R)-N′-((4-cyano-3-fluoro-2,6-diisopropylphenyl)carbamoyl)-2-(1,2-dihydroxypropan-2-yl)thiazole-5-sulfonimidamide]
1000 to 5000 | CC(C)c1cc(C#N)c(F)c(C(C)C)c1NC(=O)N=S(N)(=O)c1cnc(C(C)(O)CO)s1 (single isomer, unassigned) [Example 317, (R,R) or (R,S) or (S,S) or (S,R)-N-((4-cyano-3-fluoro-2,6-diisopropylphenyl)carbamoyl)-2-(1,2-dihydroxypropan-2-yl)thiazole-5-sulfonimidamide]
200 to 1000 | CC(C)c1cc(C#N)c(F)c(C(C)C)c1NC(=O)N=S(N)(=O)c1cnc(C(C)(O)CO)s1 (single isomer, unassigned) [Example 318, (S,S) or (S,R) or (R,R) or (R,S)-N-((4-cyano-3-fluoro-2,6-diisopropylphenyl)carbamoyl)-2-(1,2-dihydroxypropan-2-yl)thiazole-5-sulfonimidamide]
1000 to 5000 | CC(C)(O)c1ccc(S(N)(=O)=NC(=O)Nc2c3c(cc4c2CCC4)CCC3)cn1 (single isomer, unassigned) [Example 319, (S) or (R)-N′-((1,2,3,5,6,7-hexahydro-s-indacen-4-yl)carbamoyl)-6-(2-hydroxypropan-2-yl)pyridine-3-sulfonimidamide]
40 to 200 | CC(C)(O)c1ccc(S(N)(=O)=NC(=O)Nc2c3c(cc4c2CCC4)CCC3)cn1 (single isomer, unassigned) [Example 320, (R) or (S)-N′-((1,2,3,5,6,7-hexahydro-s-indacen-4-yl)carbamoyl)-6-(2-hydroxypropan-2-yl)pyridine-3-sulfonimidamide]
1000 to 5000 | CC1CCc2c1cc1c(c2NC(=O)N=S(N)(=O)c2cnc(C(C)(C)O)s2)CCC1 (single isomer, unassigned) [Example 321, (S,S) or (S,R)-2-(2-hydroxypropan-2-yl)-N′-((1-methyl-1,2,3,5,6,7-hexahydro-s-indacen-4-yl)carbamoyl)thiazole-5-sulfonimidamide (from Example 291)]
200 to 1000 | CC1CCc2c1cc1c(c2NC(=O)N=S(N)(=O)c2cnc(C(C)(C)O)s2)CCC1 (single isomer, unassigned) [Example 322, (S,R) or (S,S)-2-(2-hydroxypropan-2-yl)-N′-((1-methyl-1,2,3,5,6,7-hexahydro-s-indacen-4-yl)carbamoyl)thiazole-5-sulfonimidamide (from Example 291)]
40 to 200 | CC1CCc2c1cc1c(c2NC(=O)N=S(N)(=O)c2cnc(C(C)(C)O)s2)CCC1 (single isomer, unassigned) [Example 323, (R,R) or (R,S)-2-(2-hydroxypropan-2-yl)-N′-((1-methyl-1,2,3,5,6,7-hexahydro-s-indacen-4-yl)carbamoyl)thiazole-5-sulfonimidamide (from Example 291)]
8 to 40 | CC1CCc2c1cc1c(c2NC(=O)N=S(N)(=O)c2cnc(C(C)(C)O)s2)CCC1 (single isomer, unassigned) [Example 324, (R,S) or (R,R)-2-(2-hydroxypropan-2-yl)-N′-((1-methyl-1,2,3,5,6,7-hexahydro-s-indacen-4-yl)carbamoyl)thiazole-5-sulfonimidamide (from Example 291)]
5000 to 30000 | CC1CCc2cc3c(c(NC(=O)N=S(N)(=O)c4cnc(C(C)(C)O)s4)c21)CCC3 (single isomer, unassigned) [Example 331, (S,S) or (S,R)-2-(2-hydroxypropan-2-yl)-N′-((3-methyl-1,2,3,5,6,7-hexahydro-s-indacen-4-yl)carbamoyl)thiazole-5-sulfonimidamide]
200 to 1000 | CC1CCc2cc3c(c(NC(=O)N=S(N)(=O)c4cnc(C(C)(C)O)s4)c21)CCC3 (single isomer, unassigned) [Example 332, (R,R) or (R,S)-2-(2-hydroxypropan-2-yl)-N′-((3-methyl-1,2,3,5,6,7-hexahydro-s-indacen-4-yl)carbamoyl)thiazole-5-sulfonimidamide]
1000 to 5000 | CC1CCc2cc3c(c(NC(=O)N=S(N)(=O)c4cnc(C(C)(C)O)s4)c21)CCC3 (single isomer, unassigned) [Example 333, (S,R) or (S,S)-2-(2-hydroxypropan-2-yl)-N′-((3-methyl-1,2,3,5,6,7-hexahydro-s-indacen-4-yl)carbamoyl)thiazole-5-sulfonimidamide]
8 to 40 | CC1CCc2cc3c(c(NC(=O)N=S(N)(=O)c4cnc(C(C)(C)O)s4)c21)CCC3 (single isomer, unassigned) [Example 334, (R,S) or (R,R)-2-(2-hydroxypropan-2-yl)-N′-((3-methyl-1,2,3,5,6,7-hexahydro-s-indacen-4-yl)carbamoyl)thiazole-5-sulfonimidamide]
1000 to 5000 | CC(C)(O)c1ncc(S(N)(=O)=NC(=O)Nc2c3c(cc4c2CCC4=O)CCC3)s1 (single isomer, unassigned) [Example 335, (S) or (R)-2-(2-Hydroxypropan-2-yl)-N′-((1-oxo-1,2,3,5,6,7-hexahydro-s-indacen-4-yl)carbamoyl)thiazole-5-sulfonimidamide from Example 293]
200 to 1000 | CC(C)(O)c1ncc(S(N)(=O)=NC(=O)Nc2c3c(cc4c2CCC4=O)CCC3)s1 (single isomer, unassigned) [Example 336, (R) or (S)-2-(2-Hydroxypropan-2-yl)-N′-((1-oxo-1,2,3,5,6,7-hexahydro-s-indacen-4-yl)carbamoyl)thiazole-5-sulfonimidamide from Example 293]
< 8 | CC(C)(O)c1csc(S(N)(=O)=NC(=O)Nc2c3c(cc4c2CC4)CCC3)n1 (single isomer, unassigned) [Example 341, (R) or (S)-4-(2-hydroxypropan-2-yl)-N′-((2,4,5,6-tetrahydro-1H-cyclobuta[f]inden-3-yl)carbamoyl)thiazole-2-sulfonimidamide]
200 to 1000 | CC(C)(O)c1csc(S(N)(=O)=NC(=O)Nc2c3c(cc4c2CC4)CCC3)n1 (single isomer, unassigned) [Example 342, (R) or (S)-4-(2-hydroxypropan-2-yl)-N′-((2,4,5,6-tetrahydro-1H-cyclobuta[f]inden-3-yl)carbamoyl)thiazole-2-sulfonimidamide]
40 to 200 | CC(C)(O)c1ncc(S(N)(=O)=NC(=O)Nc2c3c(cc4c2OCC4)CCC3)s1 (single isomer, unassigned) [Example 343, (R) or (S)-2-(2-hydroxypropan-2-yl)-N′-((3,5,6,7-tetrahydro-2H-indeno[5,6-b]furan-8-yl)carbamoyl)thiazole-5-sulfonimidamide]
1000 to 5000 | CC(C)(O)c1ncc(S(N)(=O)=NC(=O)Nc2c3c(cc4c2OCC4)CCC3)s1 (single isomer, unassigned) [Example 344, (R) or (S)-2-(2-hydroxypropan-2-yl)-N′-((3,5,6,7-tetrahydro-2H-indeno[5,6-b]furan-8-yl)carbamoyl)thiazole-5-sulfonimidamide]
200 to 1000 | Cc1nc(C(C)(C)O)ccc1S(N)(=O)=NC(=O)Nc1c2c(cc3c1CCC3)CCC2 (single isomer, unassigned) [Example 345, (R) or (S)-N′-((1,2,3,5,6,7-hexahydro-s-indacen-4-yl)carbamoyl)-6-(2-hydroxypropan-2-yl)-2-methylpyridine-3-sulfonimidamide]
